# According to the supplement of paper PMC11061612:
# Columns and labels:
# Assay in all cases: Bliss excess, mean over the matrix (fraction); higher = more synergy
# [1] = system: DG-75 (Burkitt's Lymphoma)
# How it was run: (§1)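 Bliss excess equals the observed combination effect minus the expected value EA + EB − EA·EB, where EA and EB are the effects of each agent alone. Combination Emax is the second-highest inhibition within the matrix. Inhibition was scaled from CellTiter-Glo 2.0 luminescence, with 0 set by vehicle wells and 1 by blank wells, after 72 hours of two-drug dosing of cells plated in 1536-well plates.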
# [2] = system: MFE-319 (Endometrial Carcinoma)
# How it was run: as §1
# BT-20 (Breast Carcinoma) = system: BT-20 (Breast Carcinoma)
# How it was run: as §1
# RPMI-7951 (Melanoma) = system: RPMI-7951 (Melanoma)
# How it was run: as §1
# [3] = system: JHH-7 (Hepatocellular Carcinoma)
# How it was run: as §1
# [4] = system: LC4-1 (B-Lymphoblastic Leukemia)
# How it was run: as §1
# [5] = system: NCI-H2405 (Lung Adenocarcinoma)
# How it was run: as §1
# [6] = system: KYSE-50 (Esophageal Squamous Cell Carcinoma)
# How it was run: as §1
# [7] = system: H-EMC-SS (Chondrosarcoma)
# How it was run: as §1
# IMR-5 (Neuroblastoma) = system: IMR-5 (Neuroblastoma)
# How it was run: as §1
# [8] = system: OVISE (Ovarian Carcinoma)
# How it was run: as §1
# [9] = system: OCUM-1 (Gastric Carcinoma)
# How it was run: as §1
# [10] = system: HSC-2 (Oral Cavity Carcinoma)
# How it was run: as §1
# [11] = system: KP-2 (Pancreatic Carcinoma)
# How it was run: as §1
# [12] = system: ASH-3 (Thyroid Gland Carcinoma)
# How it was run: as §1
# [13] = system: KLE (Endometrial Carcinoma)
# How it was run: as §1
smiles,measurement,setting,value
"CCc1c2c(nc3ccc(O)cc13)-c1cc3c(c(=O)n1C2)COC(=O)[C@]3(O)CC [SN-38] + O=C(c1cc(Cc2n[nH]c(=O)c3ccccc23)ccc1F)N1CCN(C(=O)C2CC2)CC1 [Olaparib] (first compound max 0.3 µM, 7x7, partner max 10 µM)",Bliss excess,[1],0.0451
same,Bliss excess,[2],0.0328
same,Bliss excess,BT-20 (Breast Carcinoma),0.107
same,Bliss excess,RPMI-7951 (Melanoma),0.0656
same,Bliss excess,[3],0.0299
same,Bliss excess,[4],0.0234
same,Bliss excess,[5],0.0105
same,Bliss excess,[6],0.0126
same,Bliss excess,[7],0.0825
same,Bliss excess,IMR-5 (Neuroblastoma),0.0721
same,Bliss excess,[8],0.0082
same,Bliss excess,[9],0.014
same,Bliss excess,[10],0.102
same,Bliss excess,[11],0.0564
same,Bliss excess,[12],0.074
same,Bliss excess,[13],0.0346
